This passage reports EC50 and Ki results from ChEMBL document CHEMBL1125619, “Effect of fluorine substitution on the adrenergic properties of 3-(tert-butylamino)-1-(3,4-dihydroxyphenoxy)-2-propanol” (J Med Chem, 1991).

Experiment [1] concerns the target Beta-1 adrenergic receptor (Cavia porcellus, UniProt B0FL73). Briefly: Agonistic activity (beta-1 adrenergic receptor) for the percent maximal increase in contraction rate of isolated guinea pig atria. Type of experiment: functional.
Experiment [2] has as its target Beta-2 adrenergic receptor (Cavia porcellus, UniProt Q8K4Z4). Briefly: Agonistic activity (beta2- adrenergic) for the percent maximal relaxation of isolated guinea pig trachea. Type of experiment: functional, tissue-based.
Experiment [3] deals with Beta-1 adrenergic receptor (Rattus norvegicus, UniProt P18090).
Description: Compound was evaluated for the inhibition of binding of [3H]dihydroalprenolol from beta-1 adrenergic receptor of rat cerebral cortical membranes
A further experiment concerns the target Adrenergic receptor beta (Rattus norvegicus, UniProt P18090+P10608+P26255). Briefly: Beta adrenergic receptor agonistic activity for the stimulation of accumulation of cyclic AMP in cultured C6 glioma cells. It is filed as functional, cell-based.

Chain of Beta-1 adrenergic receptor (Cavia porcellus, UniProt B0FL73) (B0FL73 whole entry): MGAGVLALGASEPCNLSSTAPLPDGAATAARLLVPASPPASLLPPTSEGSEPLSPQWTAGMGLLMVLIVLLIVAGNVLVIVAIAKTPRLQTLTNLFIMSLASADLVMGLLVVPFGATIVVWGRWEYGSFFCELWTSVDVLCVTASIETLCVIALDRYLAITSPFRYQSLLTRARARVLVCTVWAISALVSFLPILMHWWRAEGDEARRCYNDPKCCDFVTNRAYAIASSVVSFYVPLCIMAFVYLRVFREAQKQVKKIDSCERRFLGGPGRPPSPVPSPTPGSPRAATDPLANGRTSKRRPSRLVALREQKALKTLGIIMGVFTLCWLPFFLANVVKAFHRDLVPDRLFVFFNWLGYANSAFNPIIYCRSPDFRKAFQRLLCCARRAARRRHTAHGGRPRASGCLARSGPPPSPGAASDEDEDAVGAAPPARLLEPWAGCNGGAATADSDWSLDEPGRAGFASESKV
Chain of Beta-1 adrenergic receptor (Rattus norvegicus, UniProt P18090) (P18090 whole entry): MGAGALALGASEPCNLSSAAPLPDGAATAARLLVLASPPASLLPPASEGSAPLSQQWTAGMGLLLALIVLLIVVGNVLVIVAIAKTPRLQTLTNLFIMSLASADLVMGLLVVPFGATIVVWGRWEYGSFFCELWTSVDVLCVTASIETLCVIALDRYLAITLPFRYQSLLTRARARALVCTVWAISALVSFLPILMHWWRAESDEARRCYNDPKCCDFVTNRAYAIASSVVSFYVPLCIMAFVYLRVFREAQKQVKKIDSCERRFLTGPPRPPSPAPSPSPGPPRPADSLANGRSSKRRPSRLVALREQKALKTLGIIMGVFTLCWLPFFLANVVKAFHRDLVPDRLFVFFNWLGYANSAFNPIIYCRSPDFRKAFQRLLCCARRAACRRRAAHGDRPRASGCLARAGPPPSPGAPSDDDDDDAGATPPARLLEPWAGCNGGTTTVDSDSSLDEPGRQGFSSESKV
Chain of Beta-2 adrenergic receptor (Q8K4Z4 whole entry): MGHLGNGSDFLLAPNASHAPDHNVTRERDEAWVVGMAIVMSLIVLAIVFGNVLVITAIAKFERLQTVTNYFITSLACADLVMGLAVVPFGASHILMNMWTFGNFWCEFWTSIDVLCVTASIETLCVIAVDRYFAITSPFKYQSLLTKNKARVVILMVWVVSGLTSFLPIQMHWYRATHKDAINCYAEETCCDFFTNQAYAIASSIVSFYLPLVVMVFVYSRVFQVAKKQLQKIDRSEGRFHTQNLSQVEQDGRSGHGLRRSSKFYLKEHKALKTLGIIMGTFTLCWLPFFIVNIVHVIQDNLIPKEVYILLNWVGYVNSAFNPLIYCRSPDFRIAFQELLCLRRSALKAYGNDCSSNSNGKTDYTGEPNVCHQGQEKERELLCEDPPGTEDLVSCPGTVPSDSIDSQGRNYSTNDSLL

On to `CC(C)(C)NCC(O)COc1ccc(O)c(O)c1F` (stereo not drawn), for which the EC50 in experiment [1] worked out at 8.6 nM; in experiment [2] it was 38 nM; on Adrenergic receptor beta, 9.2 nM. For the same molecule, in experiment [3], the Ki turned out to be 60 nM.

In the case of `CC(C)(C)NCC(O)COc1cc(O)c(O)cc1F` (stereo not drawn), the EC50 in experiment [1] was 175 nM; in experiment [2], over 10000 nM; at Adrenergic receptor beta, >> 10000 nM. Moreover, the Ki in experiment [3] came to 87000 nM.

`CC(C)(C)NCC(O)COc1ccc(O)c(O)c1` (stereo not drawn): the results for the concentration for a half-maximal effect (EC50) (in experiment [1]; in experiment [2]; at Adrenergic receptor beta) were 4.7 nM, 130 nM and 8.2 nM, respectively. For the same molecule, the inhibitory constant (Ki) in experiment [3] is 120 nM.

In experiment [2], `CC(C)NCC(O)c1ccc(O)c(O)c1` (stereo not drawn) [ISOPROTERENOL] came in with an EC50 of 58 nM.
